“And” between values parts separate entries of the source, which are not always exact repeats. Identical values can stand only once.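 Where inhibition never reached the appropriate level, the endpoint shown equals the highest concentration tested. Otherwise, values were interpolated linearly from a five-concentration, 48-hour dose response in 96-well plates. GI50: concentration for 50% inhibition of growth. Definition used: TGI = concentration required for complete inhibition of growth.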
Experiments:
Experiment in all cases: growth of human tumour cells (NCI), 48 h
786-0 renal = test system: 786-0 renal
A498 renal = test system: A498 renal
A549 NSCLC = test system: A549 NSCLC
ACHN renal = test system: ACHN renal
BT-549 breast = test system: BT-549 breast
CAKI-1 renal = test system: CAKI-1 renal
COLO 205 colon = test system: COLO 205 colon
DMS 114 small cell lung = test system: DMS 114 small cell lung
DMS 273 small cell lung = test system: DMS 273 small cell lung
DU-145 prostate = test system: DU-145 prostate
EKVX NSCLC = test system: EKVX NSCLC
HCT-116 colon = test system: HCT-116 colon
HCT-15 colon = test system: HCT-15 colon
HOP-62 NSCLC = test system: HOP-62 NSCLC
HOP-92 NSCLC = test system: HOP-92 NSCLC
HS 578T breast = test system: HS 578T breast
HT29 colon = test system: HT29 colon
IGROV1 ovarian = test system: IGROV1 ovarian
KM12 colon = test system: KM12 colon
KM20L2 colon = test system: KM20L2 colon
LOX IMVI melanoma = test system: LOX IMVI melanoma
LXFL 529 NSCLC = test system: LXFL 529 NSCLC
M14 melanoma = test system: M14 melanoma
M19-MEL melanoma = test system: M19-MEL melanoma
MALME-3M melanoma = test system: MALME-3M melanoma
MCF7 breast = test system: MCF7 breast
MDA-MB-231 breast = test system: MDA-MB-231 breast
MDA-MB-435 = test system: MDA-MB-435
MDA-N = test system: MDA-N
NCI-H226 lung = test system: NCI-H226 lung
NCI-H23 lung = test system: NCI-H23 lung
NCI-H460 lung = test system: NCI-H460 lung
NCI-H522 lung = test system: NCI-H522 lung
NCI/ADR-RES ovarian = test system: NCI/ADR-RES ovarian
OVCAR-3 ovarian = test system: OVCAR-3 ovarian
OVCAR-4 ovarian = test system: OVCAR-4 ovarian
OVCAR-5 ovarian = test system: OVCAR-5 ovarian
OVCAR-8 ovarian = test system: OVCAR-8 ovarian
PC-3 prostate = test system: PC-3 prostate
RPMI-8226 leukemia = test system: RPMI-8226 leukemia
RXF 393 renal = test system: RXF 393 renal
RXF-631 renal = test system: RXF-631 renal
SF-268 CNS = test system: SF-268 CNS
SF-295 CNS = test system: SF-295 CNS
SF-539 CNS = test system: SF-539 CNS
SK-MEL-2 melanoma = test system: SK-MEL-2 melanoma
SK-MEL-28 melanoma = test system: SK-MEL-28 melanoma
SK-MEL-5 melanoma = test system: SK-MEL-5 melanoma
SK-OV-3 ovarian = test system: SK-OV-3 ovarian
SN12C renal = test system: SN12C renal
SNB-19 CNS = test system: SNB-19 CNS
SNB-75 CNS = test system: SNB-75 CNS
SNB-78 CNS = test system: SNB-78 CNS
SR leukemia = test system: SR leukemia
SW-620 colon = test system: SW-620 colon
T-47D breast = test system: T-47D breast
TK-10 renal = test system: TK-10 renal
U251 CNS = test system: U251 CNS
UACC-257 melanoma = test system: UACC-257 melanoma
UACC-62 melanoma = test system: UACC-62 melanoma
UO-31 renal = test system: UO-31 renal
DLD-1 colon = test system: DLD-1 colon
HCC-2998 colon = test system: HCC-2998 colon
HL-60(TB) leukemia = test system: HL-60(TB) leukemia
HOP-18 NSCLC = test system: HOP-18 NSCLC
K-562 leukemia = test system: K-562 leukemia
MOLT-4 leukemia = test system: MOLT-4 leukemia
XF 498 CNS = test system: XF 498 CNS

CCN(CCCl)CCCCNc1c2ccccc2nc2ccc(OC)cc12 showed a TGI (786-0 renal) of 1.56 µM, a TGI (A498 renal) of 0.875 µM and a TGI (A549 NSCLC) of 2.27 µM. The TGI (ACHN renal) was 1.72 µM, the TGI (BT-549 breast) was 7.41 µM and the TGI (CAKI-1 renal) was 1.89 µM. The TGI (COLO 205 colon) was 3.63 µM, the TGI (DMS 114 small cell lung) was 1.83 µM and the TGI (DMS 273 small cell lung) was 1.44 µM. The TGI (DU-145 prostate) was 1.74 µM, the TGI (EKVX NSCLC) was 3.15 µM and the TGI (HCT-116 colon) was 1.29 µM. It also gave a TGI (HCT-15 colon) of 5.43 µM, a TGI (HOP-62 NSCLC) of 3.71 µM and a TGI (HOP-92 NSCLC) of 0.886 µM. The TGI (HS 578T breast) was over 100 µM, the TGI (HT29 colon) was 3.31 µM and the TGI (IGROV1 ovarian) was 2.05 µM. It also gave a TGI (KM12 colon) of 1.82 µM, a TGI (KM20L2 colon) of 3.35 µM and a TGI (LOX IMVI melanoma) of 1.52 µM. It also gave a TGI (LXFL 529 NSCLC) of 1.76 µM, a TGI (M14 melanoma) of 2.92 µM and a TGI (M19-MEL melanoma) of 1.68 µM. For the same compound, the TGI (MALME-3M melanoma) was 2.89 µM, the TGI (MCF7 breast) was 0.935 µM and the TGI (MDA-MB-231 breast) was 3.99 µM. For the same compound, the TGI (MDA-MB-435) was 2.12 µM, the TGI (MDA-N) was 2.96 µM and the TGI (NCI-H226 lung) was 1.08 µM. For the same compound, the TGI (NCI-H23 lung) was 1.96 µM, the TGI (NCI-H460 lung) was 1.39 µM and the TGI (NCI-H522 lung) was 1.43 µM. For the same compound, the TGI (NCI/ADR-RES ovarian) was over 100 µM, the TGI (OVCAR-3 ovarian) was 3.78 µM and the TGI (OVCAR-4 ovarian) was 2.79 µM. The TGI (OVCAR-5 ovarian) was 2.96 µM, the TGI (OVCAR-8 ovarian) was 1.94 µM and the TGI (PC-3 prostate) was 1.14 µM. It also gave a TGI (RPMI-8226 leukemia) of 4.08 µM, a TGI (RXF 393 renal) of 1.7 µM and a TGI (RXF-631 renal) of 4.51 µM. It also gave a TGI (SF-268 CNS) of 1.36 µM, a TGI (SF-295 CNS) of 3.64 µM and a TGI (SF-539 CNS) of 4.69 µM. For the same compound, the TGI (SK-MEL-2 melanoma) was 2.48 µM, the TGI (SK-MEL-28 melanoma) was 8.36 µM and the TGI (SK-MEL-5 melanoma) was 1.98 µM. For the same compound, the TGI (SK-OV-3 ovarian) was 2.77 µM, the TGI (SN12C renal) was 1.61 µM and the TGI (SNB-19 CNS) was 3.34 µM. It also gave a TGI (SNB-75 CNS) of 2.14 µM, a TGI (SNB-78 CNS) of 4.07 µM and a TGI (SR leukemia) of 1.55 µM. The TGI (SW-620 colon) was 1.63 µM, the TGI (T-47D breast) was 1.5 µM and the TGI (TK-10 renal) was 5.22 µM. For the same compound, the TGI (U251 CNS) was 1.72 µM, the TGI (UACC-257 melanoma) was 10.5 µM and the TGI (UACC-62 melanoma) was 1.59 µM. The TGI (UO-31 renal) was 4.51 µM.

With CCN(CC)CCCNc1ccc2ncn3c4ccc(O)cc4c(=O)c1c23 the GI50 (786-0 renal) was 0.802 µM, the TGI (786-0 renal) was 14.5 µM and the GI50 (A498 renal) was 0.6 µM. The TGI (A498 renal) was 17.8 µM, the GI50 (A549 NSCLC) was 0.336 µM and the TGI (A549 NSCLC) was 6.94 µM. The GI50 (ACHN renal) was 0.389 µM, the TGI (ACHN renal) was 3.78 µM and the GI50 (CAKI-1 renal) was 0.205 µM. The TGI (CAKI-1 renal) was 2.48 µM and 2.36 µM, the TGI (COLO 205 colon) was 19.4 µM and the TGI (DLD-1 colon) was 16.1 µM. For the same compound, the TGI (DMS 114 small cell lung) was 23.8 µM, the TGI (DMS 273 small cell lung) was 14.8 µM and the GI50 (EKVX NSCLC) was 5.51 µM. For the same compound, the TGI (EKVX NSCLC) was 19 µM, the GI50 (HCC-2998 colon) was 3.59 µM and the TGI (HCC-2998 colon) was 17.8 µM. For the same compound, the GI50 (HCT-116 colon) was 0.359 µM, the TGI (HCT-116 colon) was 9.75 µM and 14.1 µM and the GI50 (HCT-15 colon) was 2.03 µM. The TGI (HCT-15 colon) was 15.7 µM, the GI50 (HL-60(TB) leukemia) was 0.17 µM and the TGI (HL-60(TB) leukemia) was 4.49 µM and 1.62 µM. The TGI (HOP-18 NSCLC) was 34.6 µM, the GI50 (HOP-62 NSCLC) was 1.25 µM and the TGI (HOP-62 NSCLC) was 19.2 µM. The GI50 (HOP-92 NSCLC) was 1.28 µM, the TGI (HOP-92 NSCLC) was 7.57 µM and 12.5 µM and the TGI (HS 578T breast) was 7.28 µM. It also gave a GI50 (HT29 colon) of 2.32 µM, a TGI (HT29 colon) of 7.78 µM and a GI50 (IGROV1 ovarian) of 0.265 µM. For the same compound, the TGI (IGROV1 ovarian) was 8.58 µM and 18.6 µM, the GI50 (K-562 leukemia) was 1.3 µM and the TGI (K-562 leukemia) was 20.5 µM. For the same compound, the GI50 (KM12 colon) was 2.6 µM, the TGI (KM12 colon) was 19.5 µM and the TGI (KM20L2 colon) was 18.2 µM. For the same compound, the GI50 (LOX IMVI melanoma) was 0.95 µM, the TGI (LOX IMVI melanoma) was 2.37 µM and 2.56 µM and the TGI (LXFL 529 NSCLC) was 18.5 µM. The TGI (M14 melanoma) was 16 µM, the TGI (M19-MEL melanoma) was 21.3 µM and the GI50 (MALME-3M melanoma) was 4.17 µM. For the same compound, the TGI (MALME-3M melanoma) was 19.1 µM, the TGI (MOLT-4 leukemia) was 0.255 µM and 0.52 µM and the TGI (NCI-H226 lung) was 3.5 µM. It also gave a GI50 (NCI-H23 lung) of 0.784 µM, a TGI (NCI-H23 lung) of 14.5 µM and a GI50 (NCI-H460 lung) of 0.0627 µM. For the same compound, the TGI (NCI-H460 lung) was 5.78 µM, the GI50 (NCI-H522 lung) was 0.218 µM and the TGI (NCI-H522 lung) was 4.44 µM and 4.68 µM. The TGI (OVCAR-3 ovarian) was 22.2 µM, the TGI (OVCAR-4 ovarian) was 11.9 µM and the GI50 (OVCAR-5 ovarian) was 4.39 µM. The TGI (OVCAR-5 ovarian) was 10.7 µM, the GI50 (OVCAR-8 ovarian) was 0.669 µM and the TGI (OVCAR-8 ovarian) was 13.4 µM. It also gave a GI50 (RPMI-8226 leukemia) of 1.45 µM, a TGI (RPMI-8226 leukemia) of 21.8 µM and a GI50 (RXF 393 renal) of 0.902 µM. For the same compound, the TGI (RXF 393 renal) was 6.35 µM and 2.69 µM, the GI50 (SF-268 CNS) was 2.66 µM and the TGI (SF-268 CNS) was 17.5 µM. For the same compound, the GI50 (SF-295 CNS) was 1.83 µM, the TGI (SF-295 CNS) was 15.9 µM and the GI50 (SF-539 CNS) was 4.51 µM. For the same compound, the TGI (SF-539 CNS) was 17.2 µM, the TGI (SK-MEL-2 melanoma) was 19 µM and the TGI (SK-MEL-28 melanoma) was 25.2 µM. The TGI (SK-MEL-5 melanoma) was 18.3 µM, the GI50 (SK-OV-3 ovarian) was 0.369 µM and the TGI (SK-OV-3 ovarian) was 17.8 µM. The GI50 (SN12C renal) was 2.78 µM, the TGI (SN12C renal) was 14.7 µM and the GI50 (SNB-19 CNS) was 0.493 µM. For the same compound, the TGI (SNB-19 CNS) was 20.2 µM, the GI50 (SNB-75 CNS) was 2.3 µM and the TGI (SNB-75 CNS) was 8.49 µM and 8.39 µM. For the same compound, the TGI (SNB-78 CNS) was 28.8 µM, the GI50 (SR leukemia) was 0.124 µM and the TGI (SR leukemia) was 2.86 µM and 1.53 µM. It also gave a GI50 (SW-620 colon) of 0.832 µM, a TGI (SW-620 colon) of 15.8 µM and a GI50 (TK-10 renal) of 2.23 µM. It also gave a TGI (TK-10 renal) of 21.2 µM, a GI50 (U251 CNS) of 2.05 µM and a TGI (U251 CNS) of 17.7 µM. It also gave a TGI (UACC-257 melanoma) of 23.8 µM, a GI50 (UO-31 renal) of 0.295 µM and a TGI (UO-31 renal) of 13.4 µM. For the same compound, the TGI (XF 498 CNS) was 14.2 µM.

— PubChem BioAssay (NCI)
